Results reported in patent US6235791A, “Use of amines to produce drugs for preventing tumor cell proliferation” (Sanofi-Synthelabo, priority 1996, dated 2001).

Key:
Type in all cases: cell-based
293 = assay: MTT colorimetric proliferation test, 5 days; settings: Homo sapiens, read-out: percentage of cell proliferation relative to the untreated control taken as 100%
Method: (§1) Among other cells used, the following lines were routinely cultured in RPMI medium supplemented with 10% foetal calf serum (FCS):
human kidney carcinoma 294
(§2) The antitumour activity is measured according to the colorimetry method using MTT, 3-(4,5-dimethylthiazole-2,5-diphenyltetrazolium) bromide as described by Mosmann T., Journ. of Im. Methods; 1983, 65, 55.
(§3) This colorimetric assay makes it possible to measure quantitatively the antitumour activity of a solution containing a compound used according to the invention.
(§4) According to the procedure used, the suspended cells (such as the myeloma cells) are inoculated at 2×10^3 cells/ml in 1 ml wells in defined medium. The adherent cells (such as the MCF-7 cells) are inoculated at 5×10^4 cells/ml in 1 ml wells in RPMI medium+0.5% FCS overnight. The next day, the cell carpet is washed twice and replaced by the defined medium.
(§5) The defined medium corresponds to: RPMI+10 μg/ml insulin+10 μg/ml human transferrin.
(§6) In order to carry out this test, cells are maintained in the presence of the solution containing a compound used according to the invention for 5 days, and the MTT is then added to the culture medium.
(§7) The 5 day period which was selected corresponds to the optimum time for the activity. After culturing for 5 days, the proliferation of the cells is measured by the test described above. The optical density at 570 nm is measured. A blue coloration develops in the wells where the cells are still alive. The intensity of the coloration is proportional to the quantity of live cells.

MCF7 AZ = assay: proliferation of mammary epithelial cells, IC50 after 6 days; settings: Homo sapiens, 144 h, 10% FCS, 6 days of treatment
Method: (§8) Another study was also performed in order to determine the effect of SR 31747 on the in vitro and in vivo growth of mammary and prostate epithelial tumour cells.
(§9) The study consisted in evaluating the potential antitumour activity of SR 31747 on the growth of a variety of cancerous breast epithelial lines. The study is carried out in vitro on cell cultures, as well as in vivo after inoculation of tumoral mammary lines in "nude" athymic mice.
(§10) The cell lines which were used are as follows:
(§11) The hormone-sensitive MCF-7 line originates from a pleural effusion of a breast adenocarcinoma. The antioestrogen-resistant MCF-7LY2 cells were obtained from the MCF-7LCC1 and MCF-7LCC2 lines were developed in nude mice, after inoculation of the MCF-7 cells. The two lines are oestrogen-independent. The MCF-7CC2 cells are also antioestrogen-resistant. The MCF-7AZTD5 line is derived from the MCF-7 line after stable transfection with the H-ras oncogene. The MCF-7AZTD5 cells are antioestrogen-resistant in vitro. All of these lines are maintained on DMEM/F12 (1/1, vol/vol) containing 10% decomplemented foetal calf serum and 16 ng/ml of human insulin. The MCF-7LCC2 line is cultured in the permanent presence of 10^-7 M hydroxytamoxifen. The MDA-MB231 tumoral mammary epithelial cells are oestrogen- and antioestrogen-insensitive. They are cultured in L15 medium supplemented with 10% FCS, 1% essential amino acids and 10 μg/ml of human insulin.
(§12) All the lines are maintained at 37° C. in a humid air/CO2 (95%/5%) atmosphere, except for the MDA-MB231 cells which are cultured in the absence of CO2. THe cell lines are checked regularly free of mycoplasms.
(§13) Table B--Effect of SR 31747 on the proliferation of mammary epithelial cells. Determination of the IC50 after 6 days of treatment--medium changed every 48 hours

MCF7 AZTD5 = assay: as above; settings: Homo sapiens, MCF7, 144 h, 6 days of treatment
Method: as §8, §9, §10, §11, §12, §13

MCF7 p23-25 = assay: as above; settings: Homo sapiens, MCF7, 144 h, 6 days of treatment
Method: as §8, §9, §10, §11, §12, §13

LCC1 p23-24 (MCF-7LCC1) = assay: as above; settings: Homo sapiens, Epithelial cell, 144 h, 6 days of treatment
Method: as §8, §9, §10, §11, §12, §13

LY2 p22-23 (MCF-7LY2) = assay: as above; settings: Homo sapiens, Epithelial cell, 144 h; LY2 p22-23, 10% FCS, 6 days of treatment
Method: as §8, §9, §10, §11, §12, §13

MCF7 22HTB RPMI p + 4 = assay: as above; settings: Homo sapiens, 144 h; MCF7 22HTB RPMI p + 4, 0.1% FCS, 6 days of treatment
Method: as §8, §9, §10, §11, §12, §13

MDA MB231 p131 = assay: as above; settings: 6 days of treatment
Method: as §8, §9, §10, §11, §12, §13

human myeloma RPMI 8226 = assay: MTT colorimetric proliferation test, 5 days; settings: 120 h, read-out: percentage of cell proliferation relative to the untreated control taken as 100%
Method: as §1, §2, §3, §4, §5, §6, §7

human myeloma U266 = assay: MTT colorimetric proliferation test, 5 days; settings: U-266, 120 h, read-out: percentage of cell proliferation relative to the untreated control taken as 100%
Method: as §1, §2, §3, §4, §5, §6, §7

IC50 (MCF7 AZ): > 1000 nM | IC50 (MCF7 AZTD5; MCF7 AZTD5, 0.1% FCS): 0.2 nM | IC50 (MCF7 AZTD5; MCF7 AZTD5, 10% FCS): 600 nM | IC50 (MCF7 p23-25; MCF7 p23-25, 0.1% FCS): 2 nM | IC50 (MCF7 p23-25; MCF7 p23-25, 0.5% FCS): 100 nM | IC50 (LCC1 p23-24 (MCF-7LCC1); LCC1 p23-24, 0.1% FCS): 2 nM | IC50 (LCC1 p23-24 (MCF-7LCC1); LCC1 p23-24, 5% FCS): 1000 nM | IC50 (LY2 p22-23 (MCF-7LY2)): > 100 nM | IC50 (MCF7 22HTB RPMI p + 4): 2 nM
Structure (SMILES): CCN(C/C=C\c1ccc(C2CCCCC2)c(Cl)c1)C1CCCCC1 [SR 31747, cis-N-Cyclohexyl-N-ethyl [3-(3-chloro-4-cyclo-hexylphenyl)allyl]amine]
activity at 10 pM (293; HEK293, 120 h, 293, 10 pM): 100% | activity at 0.0001 µM (293; HEK293, 120 h, 293, 100 pM): 84% | activity at 0.001 µM (293; HEK293, 120 h, 293, 1 nM): 80% | activity at 0.01 µM (293; HEK293, 120 h, 293, 10 nM): 43% | activity at 0.1 µM (293; HEK293, 120 h, 293, 100 nM): 36% | activity at 1 µM (293; HEK293, 120 h, 293, 1 μM): 10% | activity at 10 µM (293; HEK293, 120 h, 293, 10 μM): 7% | IC50 (MDA MB231 p131; Homo sapiens, MDA-MB-231, 144 h, MDA MB231 p131, 0.1% FCS): 2 nM | IC50 (MDA MB231 p131; Homo sapiens, MDA-MB-231, 144 h, MDA MB231 p131, 10% FCS): 800 nM | IC50 (MDA MB231 p131; MDA MB231 p131, 10% FCS): 400 nM | activity at 10 pM (human myeloma RPMI 8226; RPMI 8226, 10 pM): 100% | activity at 0.0001 µM (human myeloma RPMI 8226; RPMI 8226, 100 pM): 91% | activity at 0.001 µM (human myeloma RPMI 8226; RPMI 8226, 1 nM): 79% | activity at 0.01 µM (human myeloma RPMI 8226; RPMI 8226, 10 nM): 66% | activity at 0.1 µM (human myeloma RPMI 8226; RPMI 8226, 100 nM): 54% | activity at 1 µM (human myeloma RPMI 8226; RPMI 8226, 1 μM): 9% | activity at 10 µM (human myeloma RPMI 8226; RPMI 8226, 10 μM): 6% | activity at 10 pM (human myeloma U266; U266, 10 pM): 100% | activity at 0.0001 µM (human myeloma U266; U266, 100 pM): 100% | activity at 0.001 µM (human myeloma U266; U266, 1 nM): 95% | activity at 0.01 µM (human myeloma U266; U266, 10 nM): 82% | activity at 0.1 µM (human myeloma U266; U266, 100 nM): 67% | activity at 1 µM (human myeloma U266; U266, 1 μM): 52% | activity at 10 µM (human myeloma U266; U266, 10 μM): 11%
